Measurements: patent US9593305B2, “Differentiation of pluripotent stem cells” (Janssen Biotech, Inc., priority 2008, dated 2017)
Where two headings read alike, the source gives them in different places.

Legend:
[1] = system: H1 human embryonic stem cells; assay: Analogue screening in combination with only GDF-8, SOX17 (Example 21, Tables 18 and 19); format: cell-based; set-up: Sox17 Expression: % of positive control / Cell Number: % of positive control: tested at 2.5 µM; details: compound in combination with GDF8
Protocol: Briefly, clusters of H1 human embryonic stem cells were grown on reduced growth factor Matrigel™ (Invitrogen; Cat #356231)-coated tissue culture plastic. Cells were passaged using collagenase (Invitrogen; Cat #17104-019) treatment and gentle scraping, washed to remove residual enzyme, and plated with even dispersal at a ratio of 1:1 (surface area) on reduced growth factor […]™ (BD Biosciences; Cat #356231)-coated 96-well black plates (Packard ViewPlates; PerkinElmer; Cat #6005182) using volumes of 100 μl/well. Cells were allowed to attach and then recover log phase growth over a 1 to 3 day time period, feeding daily with MEF conditioned medium supplemented with 8 ng/ml bFGF (R&D Systems; Cat #233-FB). Plates were maintained at 37° C., 5% CO2 in a humidified box throughout the duration of assay.
Screening was conducted using a library of the analogue compounds. Compounds from this library were made available as 5 mM stocks in 96-well plate format, solubilized in 100% DMSO (Sigma; Cat #D2650) and stored at −80° C. The library compounds were further diluted to an intermediate concentration of 0.2 mM in 50 mM HEPES (Invitrogen; Cat #15630-080), 20% DMSO and stored at 4° C. Test conditions were performed in triplicate, feeding on alternating days over a four-day assay period. Assays were initiated by aspirating culture medium from each well followed by three washes in PBS (Invitrogen; Cat #14190) to remove residual growth factors. On the first day of assay, test volumes of 200 μl per well were added to each well using DMEM:F12 base medium (Invitrogen; Cat #11330-032) supplemented with 0.5% FCS (HyClone; Cat #SH30070.03) and 200 ng/ml GDF-8 (R&D Systems, Cat #788-G8) plus 2.5 μM compound. On the third day of assay, test volumes of 100 μl per well were added to each well using DMEM:F12 base medium supplemented with 2% FCS plus 200 ng/ml GDF-8 (R&D Systems, Cat #788-G8). Positive control samples contained the same base medium supplemented with FCS and 1000 ng/ml recombinant human activin A (PeproTech; Cat #120-14) throughout the four-day assay along with Wnt3a (20 ng/ml) on days 1 and 2. Negative control samples contained DMEM:F12 base medium supplemented with FCS, adding Wnt3a on days 1 and 2 but omitting treatment with activin A.
At the conclusion of four-days of culture, assay plates were washed twice with PBS (Invitrogen; Cat #14190), fixed with 4% paraformaldehyde (Alexis Biochemical; Cat #ALX-350-011) at room temperature for 20 minutes, then washed three times with PBS and permeabilized with 0.5% Triton X-100 (Sigma; Cat #T8760-2) for 20 minutes at room temperature. Cells were washed again three times with PBS and blocked with 4% chicken serum (Invitrogen; Cat #16110082) in PBS for 30 minutes at room temperature. Primary antibody (goat anti-human SOX17; R&D Systems; Cat #AF1924) was diluted 1:100 in 4% chicken serum and added to each well for one hour at room temperature. Alexa Fluor 488 conjugated secondary antibody (chicken anti-goat IgG; Molecular Probes; Cat #AZ1467) was diluted 1:200 in PBS and added to each sample well after washing three times with PBS. To counterstain nuclei, 4 μg/ml Hoechst 33342 (Invitrogen; Cat #H3570) was added for ten minutes at room temperature. Plates were washed once with PBS and left in 100 μl/well PBS for imaging.
Imaging was performed using an IN Cell Analyzer 1000 (GE Healthcare) utilizing the 51008bs dichroic for cells stained with Hoechst 33342 and Alexa Fluor 488. Exposure times were optimized from positive control wells and from untreated negative control wells stained with secondary antibody alone. Images from 15 fields per well were acquired to compensate for any cell loss during the bioassay and subsequent staining procedures. Measurements for total cell number and total SOX17 intensity were obtained from each well using IN Cell Developer Toolbox 1.7 (GE Healthcare) software. […]

[2] = system: H1 human embryonic stem cells; assay: Secondary assay: compound combined with individual growth factors or small molecules, no activin A (Example 5, Table 4); format: cell-based; details: for increase in SOX17 expression (% of the activin A/Wnt3a control): growth factor 50 ng/ml combined with 2.5 μM compound and Wnt3a
Protocol: Clusters of H1 human embryonic stem cells were grown on reduced growth factor […]™ (Invitrogen; Cat #356231)-coated tissue culture plastic. Cells were passaged using collagenase (Invitrogen; Cat #Cat #17104-019) treatment and gentle scraping, washed to remove residual enzyme, and plated with even dispersal at a ratio of 1:1 (surface area) on reduced growth factor […]™-coated 96-well black plates (Packard ViewPlates; PerkinElmer; Cat #6005182) using volumes of 100 μl/well. Cells were allowed to attach as clusters and then recover log phase growth over a 1 to 3 day period, feeding daily with MEF conditioned medium supplemented with 8 ng/ml bFGF (R&D Systems; Cat #233-FB). Plates were maintained at 37° C., 5% CO2 in a humidified box throughout the duration of assay.
Other agents tested were purchased as follows: BMP-7 (Sigma; Cat #B1434), LY294002 (Cayman; Cat 70920), PD98059, U0126, U0124 (EMD Biosciences; Cat #453710), muscimol (Tocris; Cat #0289), biuculline (Tocris; Cat #0130), sodium butyrate (Sigma; Cat #B5887). All growth factors were solubilized in PBS with 0.1% BSA (Sigma; Cat #A7888) and stored frozen at −80° C. Small molecules were solubilized in 100% DMSO (Sigma; Cat #D2650) and stored frozen at −80° C. The compounds were available as 5 mM stocks in 96-well plate format, solubilized in 100% DMSO and stored at −80° C. The compounds of the present invention were further diluted to an intermediate concentration of 0.2 mM in 50 mM HEPES (Invitrogen; Cat #15630-080), 20% DMSO and stored at 4° C. All growth factors and inhibitors were prepared in a deep well, 96-well polypropylene plate, diluted to 5× intermediate stocks in DMEM:F12 base medium at the beginning of assay and stored at 4° C.
A secondary screening assay was conducted, testing in triplicate and feeding on alternate days over the four-day assay timeframe. Assays were initiated by aspirating culture medium from each well followed by three washes in PBS to remove residual growth factors and serum. Test volumes of 80 μl per well were added back containing DMEM:F12 base medium (Invitrogen; Cat #11330-032) supplemented with 0.625% FCS (HyClone; Cat #SH30070.03), 25 ng/ml Wnt3a (R&D Systems), and 3.125 μM compound plus 20 μl 5× stock of growth factor or small molecule to yield a final concentration of 0.5% FCS, 20 ng/ml Wnt3a, and 2.5 μM compound. […] Final assay concentrations of small molecules tested were as follows: muscimol (20 μM), PD98059 (1 μM), LY294002 (2.5 μM), 00124 (1 μM), U0126 (1 μM), sodium butyrate (0.5 mM). Positive control wells (100 μl/well) contained the same base medium supplemented with 0.5% FCS, 20 ng/ml Wnt3a and 100 ng/ml activin A. Negative control wells (100 μl/well) contained the same base medium with 0.5% FCS and 20 ng/ml Wnt3a, omitting activin A.
On day 3, wells were aspirated and fed with 80 μl DMEM:F12 base medium supplemented with 2.5% FCS (HyClone) and 3.125 μM cyclic aniline-pyridinotriazine compound plus 20 μl 5× stock of growth factors or small molecules per well to yield a final concentration of 2% FCS and 2.5 μM compound (omitting Wnt3a) and as denoted on day one for all remaining growth factors or small molecules. Positive control wells (100 μl/well) contained the same base medium supplemented with 2% FCS and 100 ng/ml activin A, omitting Wnt3a. Negative control wells (100 μl/well) contained the same base medium with 2% FCS, omitting both activin A and Wnt3a.
At the conclusion of four-days of culture, assay plates were washed twice with PBS, fixed with 4% paraformaldehyde (Alexis Biochemical; Cat #ALX-350-011) at room temperature for 20 minutes, then washed three times with PBS and permeabilized with 0.5% Triton X-100 (Sigma; Cat #T8760-2) for 20 minutes at room temperature. Cells were washed again three times with PBS and blocked with 4% chicken serum (Invitrogen; Cat #16110082) in PBS for 30 minutes at room temperature.

[3] = relative to Activin A/Wnt3a of the same plate
[4] = agent combined with 2.5 μM compound and Wnt3a, no activin A

Q: Which “Cell Number: Average Total Cell Number” value ([1]; four assay plates) does the source give for `O=C(O)CCc1cccc(Nc2ncnc(-c3cccnc3)n2)c1` [Compound 1, 3-{3-[(4-Pyridin-3-yl-1,3,5-triazin-2-yl)amino]phenyl}propanoic acid] here?
A: The value was 3213.

Q: What about the “Sox17 Expression: Average Total Intensity” value ([1]; four assay plates) of the same molecule?
A: The value was 6.48E+06.

Q: And the “Cell Number: % of positive control” value [1, 3]?
A: The value was 21.0%.

Q: And the “Sox17 Expression: % of positive control” value [1, 3]?
A: Its value is 1.9%.

Q: For `CS/C(N)=C(C#N)/C(C#N)=C(\N)SC` [Compound U0124, U0124, reference compound], which “effect on SOX17 expression” value [2, 4] is on record?
A: Its value is “inhibited or had negligible effects on SOX17 expression”.

Q: How did the “effect on SOX17 expression” value [2] turn out when `N#CC(=C(/N)Sc1ccccc1N)/C(C#N)=C(\N)Sc1ccccc1N` [Compound U0126, U0126, reference compound] was run?
A: The value was “inhibited or had negligible effects on SOX17 expression”.

Q: How did the “effect on SOX17 expression” value [2, 4] turn out when `COc1cccc(-c2cc(=O)c3ccccc3o2)c1N` [PD98059, reference compound] was run?
A: The value was “inhibited or had negligible effects on SOX17 expression”.

Q: For `NCc1cc(=O)[nH]o1` [muscimol, reference compound], which “effect on SOX17 expression” value [2, 4] is on record?
A: The value was “modest increase in SOX17 expression”.

Q: With `CCCC(=O)[O-].[Na+]` [sodium butyrate, reference compound] as the molecule, how does the “effect on SOX17 expression” value [2, 4] read?
A: The value was “inhibited or had negligible effects on SOX17 expression”.

Q: With VEGF as the molecule, how does the “increase in SOX17 expression (% of the activin A/Wnt3a control)” value ([2]; no activin A) read?
A: Its value is 18%.

B1: BMP-6: member of the BMP family, R&D Systems (protein, UniProt P22004 375-513, looked up)
Bone morphogenetic protein 6: SASSRRRQQSRNRSTQSQDVARVSSASDYNSSELKTACRKHELYVSFQDLGWQDWIIAPKGYAANYCDGECSFPLNAHMNATNHAIVQTLVHLMNPEYVPKPCCAPTKLNAISVLYFDDNSNVILKKYRNMVVRACGCH
Q: With B1 as the molecule, how does the “effect on SOX17 expression” value [2, 4] read?
A: The value was “inhibited or had negligible effects on SOX17 expression”.

B2: FGF4: growth factor purchased from R&D Systems (protein, UniProt P08620 31-206, looked up)
Fibroblast growth factor 4: APTAPNGTLEAELERRWESLVALSLARLPVAAQPKEAAVQSGAGDYLLGIKRLRRLYCNVGIGFHLQALPDGRIGGAHADTRDSLLELSPVERGVVSIFGVASRFFVAMSSKGKLYGSPFFTDECTFKEILLPNNYNAYESYKYPGMFIALSKNGKTKKGNRVSPTMKVTHFLPRL
Q: How did the “retention of cell numbers” value ([2]; 50 ng/ml combined with 2.5 μM compound and Wnt3a, no activin A) turn out when B2 was run?
A: The value was “not able to support retention of cell numbers”.

Q: What about the “increase in SOX17 expression (% of the activin A/Wnt3a control)” value ([2]; no activin A) of the same molecule?
A: Its value is 17%.

B3: BMP-1: member of the BMP family, R&D Systems (protein, UniProt P13497 121-986, looked up)
Bone morphogenetic protein 1: AATSRPERVWPDGVIPFVIGGNFTGSQRAVFRQAMRHWEKHTCVTFLERTDEDSYIVFTYRPCGCCSYVGRRGGGPQAISIGKNCDKFGIVVHELGHVVGFWHEHTRPDRDRHVSIVRENIQPGQEYNFLKMEPQEVESLGETYDFDSIMHYARNTFSRGIFLDTIVPKYEVNGVKPPIGQRTRLSKGDIAQARKLYKCPACGETLQDSTGNFSSPEYPNGYSAHMHCVWRISVTPGEKIILNFTSLDLYRSRLCWYDYVEVRDGFWRKAPLRGRFCGSKLPEPIVSTDSRLWVEFRSSSNWVGKGFFAVYEAICGGDVKKDYGHIQSPNYPDDYRPSKVCIWRIQVSEGFHVGLTFQSFEIERHDSCAYDYLEVRDGHSESSTLIGRYCGYEKPDDIKSTSSRLWLKFVSDGSINKAGFAVNFFKEVDECSRPNRGGCEQRCLNTLGSYKCSCDPGYELAPDKRRCEAACGGFLTKLNGSITSPGWPKEYPPNKNCIWQLVAPTQYRISLQFDFFETEGNDVCKYDFVEVRSGLTADSKLHGKFCGSEKPEVITSQYNNMRVEFKSDNTVSKKGFKAHFFSDKDECSKDNGGCQQDCVNTFGSYECQCRSGFVLHDNKHDCKEAGCDHKVTSTSGTITSPNWPDKYPSKKECTWAISSTPGHRVKLTFMEMDIESQPECAYDHLEVFDGRDAKAPVLGRFCGSKKPEPVLATGSRMFLRFYSDNSVQRKGFQASHATECGGQVRADVKTKDLYSHAQFGDNNYPGGVDCEWVIVAEEGYGVELVFQTFEVEEETDCGYDYMELFDGYDSTAPRLGRYCGSGPPEEVYSAGDSVLVKFHSDDTITKKGFHLRYTSTKFQDTLHSRK
Q: Which “effect on SOX17 expression” value [2, 4] does the source give for B3 here?
A: Its value is “inhibited or had negligible effects on SOX17 expression”.

B4: BMP-7: member of the BMP family (protein, UniProt P18075 293-431, looked up)
Bone morphogenetic protein 7: STGSKQRSQNRSKTPKNQEALRMANVAENSSSDQRQACKKHELYVSFRDLGWQDWIIAPEGYAAYYCEGECAFPLNSYMNATNHAIVQTLVHFINPETVPKPCCAPTQLNAISVLYFDDSSNVILKKYRNMVVRACGCH
Q: How did the “effect on SOX17 expression” value [2, 4] turn out when B4 was run?
A: The value was “inhibited or had negligible effects on SOX17 expression”.
